Patent US20240173316A1, “Methods and Compositions for Treating Cancer” (Ohio Northern University, priority 2022, published 2024)

Columns and labels:
[1] = molecular target: RGS4-Galpha-q interaction (Homo sapiens (Human), UniProt P49798); test: NanoBit RGS/Gα cell-based protein-protein interaction assay, RGS4; details: for IC50: inhibition of RGS4-Galpha-q interaction, read-out: RGS4 IC50 μM (95% Cl)
Protocol: (§1) The NanoBit cell-based assay was performed as previously described. The NanoBit substrate (NanoGlo Live Cell Reagent) was prepared as a 5× stock, per the manufacture's protocol, and added to the wells at 10 μL per well. Post substrate addition, a baseline signal was established for 30 minutes using a BioTek Synergy 2 plate reader in luminescent mode. Post baseline read 10 μL of vehicle (Hank's Balanced Salt solution+20 mM HEPES) or AlF4 (stock solution: 40 mM NaF, 500 μM AlCl3) was added and luminescence was measured for an additional 30 minutes. Lastly, 4× compound or vehicle (DMSO) was added to the appropriate wells, and the plate was read for an additional hour. Data presented represents the mean of N=3 independent experiments±S.E.M. All data analysis was completed in GraphPad Prism 7 and 8.
(§2) All selected compounds were purchased and tested for their ability to inhibit RGS2-Galpha-q interaction in NanoBit assays. The same assay was also used to test the compounds' ability to inhibit RGS4-Galpha-q interaction as a measure of selectivity. RGS4 was not part of the docking calculations performed here because no structure is available for the human RGS4. It was used in the assays, nonetheless, to test for the validity of our docking approach to selectivity and binding.

[2] = system: NCI 60 cell panel; test: NCI 60 Cell One-Dose Screen; format: cell-based, human; details: single high dose 10^−5 M; leukemia, NSCLC, colon, CNS, melanoma, ovarian, renal, prostate, breast
Protocol: Another study was conducted to measure the cytotoxic effect of the RGS2 inhibitor. The growth reduction feature of direct RGS2 inhibitors was examined within the National Cancer Institute single high dose panel established that the drug was cytotoxic across a variety of cancers. Spanning across 60 standard cancer cell lines, this cytotoxicity assessment measured anti-proliferative activity within the following cancer types, with numerous subtypes below them: leukemia, non-small cell lung cancer, colon cancer, central nervous system cancer, melanoma, ovarian cancer, renal cancer, prostate cancer, and breast cancer.
The NCI 60 Cell One-Dose Screen is a standardized test carried out by National Cancer Institute, where a compound is tested at an initial single high dose (10^−5 M) across the full NCI 60 cell panel. Once a compound is assessed to be effective against a standard threshold number of cell lines, the compound is progresses to a full five-dose screen to determine anti-proliferative capability. This assay is ran relative to parallel studies with a no-drug control and at time zero number of cells.

[3] = molecular target: RGS2-Galpha-q interaction (Homo sapiens (Human), UniProt P41220); test: NanoBit RGS/Gα cell-based protein-protein interaction assay, RGS2; details: for Selectivity: RGS4 IC50/RGS2 IC50; for IC50: inhibition of RGS2-Galpha-q interaction, read-out: RGS2 IC50 μM (95% Cl)
Protocol: as §1, §2

[4] = system: LNCaP prostate cancer cell line; test: Wound healing (scratch) migration assay; format: cell-based, human; details: 1 μM, more potently at 2 μM and higher
Protocol: It has previously been shown that RGS2 gene expression in the human prostate cancer cells LnCap were downgraded by infection with small hairpin RNA (shRNA) targeting the RGS2 gene (henceforth “shRGS2”). These shRGS2 LnCap cells expressed lower levels of RGS2 protein compared to the non-infected control, leading to a reduction in RGS2 activity.
Metastatic evaluation was carried out by a wound healing assay. A wound healing assay measures cell migration of individual cells, cell sheets, and clusters from one location to another. A single mechanical laceration was made on a 12-well plate growing a cancer cells monolayer that was grown overnight, and the cells were allowed to regrow across the inclusion over the span of 48 hours. Results were recorded between the knockdown shRGS2 and control in values of the closure % as the wound healing took place at 24 hour and 48 hour time points (FIG. 3). Results for the RGS2 inhibitor treated cells were recorded as pictures taken at 5 separate time points every 24 hours (FIG. 4A-H).

Sequence of RGS2-Galpha-q interaction (P41220 whole entry): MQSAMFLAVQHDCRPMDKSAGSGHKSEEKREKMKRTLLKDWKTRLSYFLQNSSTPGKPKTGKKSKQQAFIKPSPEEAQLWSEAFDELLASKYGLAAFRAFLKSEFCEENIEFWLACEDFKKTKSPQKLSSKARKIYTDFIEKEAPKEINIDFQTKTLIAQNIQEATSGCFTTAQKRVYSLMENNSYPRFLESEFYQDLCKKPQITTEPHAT
Sequence of RGS4-Galpha-q interaction (P49798 whole entry): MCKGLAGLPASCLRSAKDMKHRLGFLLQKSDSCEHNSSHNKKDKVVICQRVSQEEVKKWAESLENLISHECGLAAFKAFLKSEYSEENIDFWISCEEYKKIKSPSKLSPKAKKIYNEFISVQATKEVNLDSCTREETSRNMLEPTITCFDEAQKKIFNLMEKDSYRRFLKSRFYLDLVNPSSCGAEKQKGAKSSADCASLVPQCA

Row | IC50 [1] | Selectivity [3] | IC50 [3] | activity towards RGS4 ([1]; result in words) | Compound | cytotoxic effect across cancer types [2] | migration of LNCaP cells [4]
1 | 10.1 µM | 289 | 0.04 µM |  | Nc1nc2c(nc(NCCCN3CCOCC3)n2[C@H]2O[C@@H](CO)[C@H](O)[C@@H]2O)c(=O)[nH]1 [AJ-1] | cytotoxic effect against all aforementioned cancers except prostate, ovarian, and colon cancer | 
2 | 18.8 µM | 13 | 1.45 µM |  | COc1ccc(Cn2nnnc2[C@H](c2cc3cc(C)ccc3[nH]c2=O)N2CCN(C3CCCCC3)CC2)cc1 [AJ-2] |  | 
3 | 21 µM | 4.25 | 4.94 µM |  | Cc1onc(C(=O)NNC(=O)Nc2ccc(Cl)cc2)c1C(=O)N1CCN(C(c2ccccc2)c2ccccc2)CC1 [AJ-3] | strong cytotoxic effect against the full list of cancers | inhibited the migration ability
4 | 25 µM | 1.81 | 13.8 µM |  | Cc1ccc([C@@H](C(=O)NC2CCCCC2)N(Cc2ccccc2Cl)C(=O)c2ccc(CN3CCOCC3)o2)o1 [AJ-4] | strong cytotoxic effect against the full list of cancers | 
5 | 23 µM | 1.53 | 15 µM |  | Cc1cc(C)c2[nH]c(=O)c([C@@H](c3nnnn3Cc3ccc4c(c3)OCO4)N3CCN(C)CC3)cc2c1 [AJ-5] |  | 
6 | ~9.6 µM | 0.48 | 19.8 µM |  | Cc1cccc2cc([C@H](c3nnnn3Cc3ccc4c(c3)OCO4)N3CCN(C)CC3)c(=O)[nH]c12 [AJ-6] |  | 
7 | 14.1 µM | 0.51 | 27.6 µM |  | Cn1c(=O)c2c(nc(NCc3ccccc3)n2C[C@H](O)CN2CCN(Cc3ccccc3)CC2)n(C)c1=O [AJ-7] |  | 
8 | 9.6 µM | 0.29 | 33.1 µM |  | CCc1ccc2[nH]c(=O)c(C(c3nnnn3Cc3ccc(F)cc3)N3CCN(C4CCCCC4)CC3)cc2c1 (stereo not drawn) [AJ-8] | strong cytotoxic effect against the full list of cancers | 
9 | 91 µM | 2.72 | 33.5 µM |  | Cc1cc(C)c2[nH]c(=O)c(C(c3nnnn3Cc3ccc(F)cc3)N3CCN(C4CCCCC4)CC3)cc2c1 (stereo not drawn) [AJ-9] | strong cytotoxic effect against the full list of cancers | 
10 |  |  | 78 µM | no apparent activity towards RGS4 | COCc1ccc2[nH]c(=O)c(C(c3nnnn3C[C@H]3CCCO3)N3CCN(Cc4ccccc4)CC3)cc2c1 (stereo partly drawn) [AJ-10] | strong cytotoxic effect against the full list of cancers | 
